# Results from the NIST ThermoML archive (doi:10.1021/je200820v).
# ± gives the expanded uncertainty stated by the source.
# Key:
# [1] = Liquid, Closed cell (Static) method
# [2] = excess molar enthalpy (molar enthalpy of mixing); xn = mol fraction of the nth substance listed; conditions: 303.15 K, 101 kPa, Liquid, Calvet calorimetry
SMILES,vapor or sublimation pressure ([1]; 273.15 K) [kPa],vapor or sublimation pressure ([1]; 293.15 K) [kPa],vapor or sublimation pressure ([1]; 298.15 K) [kPa],vapor or sublimation pressure ([1]; 303.15 K) [kPa],vapor or sublimation pressure ([1]; 313.15 K) [kPa],vapor or sublimation pressure ([1]; 323.15 K) [kPa],vapor or sublimation pressure ([1]; 333.15 K) [kPa],vapor or sublimation pressure ([1]; 343.15 K) [kPa],vapor or sublimation pressure ([1]; 353.15 K) [kPa],vapor or sublimation pressure ([1]; 363.15 K) [kPa],also measured
"CCN(CC)CCN [N,N-diethylethane-1,2-diamine]",0.1291 ± 0.005,0.5288 ± 0.014,0.7256 ± 0.019,0.9831 ± 0.025,1.741 ± 0.04,2.957 ± 0.064,4.833 ± 0.1,7.634 ± 0.16,11.7 ± 0.24,17.43 ± 0.36,
"CCN(CC)CCN [N,N-diethylethane-1,2-diamine] + CCCCCCC",,,,,,,,,,,excess molar enthalpy ([2]; x1 = 0.0612): 0.284 ± 0.012 kJ/mol; excess molar enthalpy ([2]; x1 = 0.1118): 0.483 ± 0.02 kJ/mol; excess molar enthalpy ([2]; x1 = 0.1488): 0.6 ± 0.025 kJ/mol; excess molar enthalpy ([2]; x1 = 0.2038): 0.749 ± 0.031 kJ/mol; excess molar enthalpy ([2]; x1 = 0.2452): 0.84 ± 0.034 kJ/mol; excess molar enthalpy ([2]; x1 = 0.3051): 0.928 ± 0.038 kJ/mol; excess molar enthalpy ([2]; x1 = 0.4078): 1 ± 0.041 kJ/mol; excess molar enthalpy ([2]; x1 = 0.5068): 0.998 ± 0.041 kJ/mol; excess molar enthalpy ([2]; x1 = 0.6156): 0.906 ± 0.037 kJ/mol; excess molar enthalpy ([2]; x1 = 0.7084): 0.767 ± 0.031 kJ/mol; excess molar enthalpy ([2]; x1 = 0.7471): 0.686 ± 0.028 kJ/mol; excess molar enthalpy ([2]; x1 = 0.8058): 0.563 ± 0.023 kJ/mol; excess molar enthalpy ([2]; x1 = 0.8841): 0.362 ± 0.015 kJ/mol
CCCCCCC [heptane],1.536 ± 0.036,4.76 ± 0.1,6.135 ± 0.13,7.829 ± 0.16,12.39 ± 0.26,18.96 ± 0.39,28.14 ± 0.57,40.64 ± 0.83,57.27 ± 1.2,78.94 ± 1.6,
